One block for each molecule: values may come before it.
What was measured:
[1] = (§1) The drug is tested on WLS-170 corresponding to human gut metagenome with ENA study accession number: PRJEB37062 and ENA sample accession number: ERS12561762 for biotransformation under anaerobic condition. The drug concentrations were measured over 9 timepoints collected between 0 and 24 hours of incubation by liquid-chromatography-coupled mass spectrometry (LC–MS); conditions: 2 µM
[2] = human gut metagenome, 24 h, 2 µM
[3] = human gut metagenome, 24 h, 2 µM; remark: listed apart in the source
[4] = as §1, with “WLS-370” for “WLS-170”, “ERS12561793” for “ERS12561762”; conditions: 2 µM
[5] = human gut metagenome, 24 h, 2 µM; remark: listed apart in the source
[6] = human gut metagenome, 24 h, 2 µM; remark: listed apart in the source
[7] = human gut metagenome, 24 h, 2 µM; remark: listed apart in the source
[8] = human gut metagenome, 24 h, 2 µM; remark: listed apart in the source
[9] = human gut metagenome, 24 h, 2 µM; remark: listed apart in the source
[10] = as §1, with “WLS-098” for “WLS-170”, “ERS12561754” for “ERS12561762”; conditions: 2 µM
[11] = human gut metagenome, 24 h, 2 µM; remark: listed apart in the source
[12] = human gut metagenome, 24 h, 2 µM; remark: listed apart in the source
[13] = human gut metagenome, 24 h, 2 µM; remark: listed apart in the source
[14] = as §1, with “WLS-090” for “WLS-170”, “ERS12561753” for “ERS12561762”; conditions: 2 µM
[15] = human gut metagenome, 24 h, 2 µM; remark: listed apart in the source
[16] = human gut metagenome, 24 h, 2 µM; remark: listed apart in the source
[17] = human gut metagenome, 24 h, 2 µM; remark: listed apart in the source
[18] = as §1, with “WLS-086” for “WLS-170”, “ERS12561752” for “ERS12561762”; conditions: 2 µM
[19] = human gut metagenome, 24 h, 2 µM; remark: listed apart in the source
[20] = as §1, with “WLS-006” for “WLS-170”, “ERS12561741” for “ERS12561762”; conditions: 2 µM
[21] = as §1, with “WLS-052” for “WLS-170”, “ERS12561747” for “ERS12561762”; conditions: 2 µM
[22] = human gut metagenome, 24 h, 2 µM; remark: listed apart in the source
[23] = human gut metagenome, 24 h, 2 µM; remark: listed apart in the source
[24] = human gut metagenome, 24 h, 2 µM; remark: listed apart in the source
[25] = as §1, with “WLS-240” for “WLS-170”, “ERS12561773” for “ERS12561762”; conditions: 2 µM
[26] = human gut metagenome, 24 h, 2 µM; remark: listed apart in the source
[27] = human gut metagenome, 24 h, 2 µM; remark: listed apart in the source
[28] = as §1, with “WLS-039” for “WLS-170”, “ERS12561746” for “ERS12561762”; conditions: 2 µM
[29] = human gut metagenome, 24 h, 2 µM; remark: listed apart in the source
[30] = human gut metagenome, 24 h, 2 µM; remark: listed apart in the source
[31] = human gut metagenome, 24 h, 2 µM; remark: listed apart in the source
[32] = human gut metagenome, 24 h, 2 µM; remark: listed apart in the source
[33] = human gut metagenome, 24 h, 2 µM; remark: listed apart in the source
[34] = human gut metagenome, 24 h, 2 µM; remark: listed apart in the source
[35] = human gut metagenome, 24 h, 2 µM; remark: listed apart in the source
[36] = as §1, with “WLS-038” for “WLS-170”, “ERS12561745” for “ERS12561762”; conditions: 2 µM
[37] = as §1, with “WLS-027” for “WLS-170”, “ERS12561744” for “ERS12561762”; conditions: 2 µM
[38] = as §1, with “WLS-220” for “WLS-170”, “ERS12561769” for “ERS12561762”; conditions: 2 µM
[39] = as §1, with “WLS-069” for “WLS-170”, “ERS12561748” for “ERS12561762”; conditions: 2 µM
[40] = human gut metagenome, 24 h, 2 µM; remark: listed apart in the source
[41] = as §1, with “WLS-077” for “WLS-170”, “ERS12561750” for “ERS12561762”; conditions: 2 µM
[42] = human gut metagenome, 24 h, 2 µM; remark: listed apart in the source
[43] = human gut metagenome, 24 h, 2 µM; remark: listed apart in the source
[44] = human gut metagenome, 24 h, 2 µM; remark: listed apart in the source
[45] = human gut metagenome, 24 h, 2 µM; remark: listed apart in the source
[46] = as §1, with “WLS-310” for “WLS-170”, “ERS12561785” for “ERS12561762”; conditions: 2 µM
[47] = human gut metagenome, 24 h, 2 µM; remark: listed apart in the source
[48] = as §1, with “WLS-082” for “WLS-170”, “ERS12561751” for “ERS12561762”; conditions: 2 µM
[49] = human gut metagenome, 24 h, 2 µM; remark: listed apart in the source
[50] = human gut metagenome, 24 h, 2 µM; remark: listed apart in the source
[51] = as §1, with “WLS-007” for “WLS-170”, “ERS12561742” for “ERS12561762”; conditions: 2 µM
[52] = human gut metagenome, 24 h, 2 µM; remark: listed apart in the source
[53] = as §1, with “WLS-073” for “WLS-170”, “ERS12561749” for “ERS12561762”; conditions: 2 µM
[54] = as §1, with “WLS-350” for “WLS-170”, “ERS12561789” for “ERS12561762”; conditions: 2 µM
[55] = human gut metagenome, 24 h, 2 µM; remark: listed apart in the source
[56] = human gut metagenome, 24 h, 2 µM; remark: listed apart in the source
[57] = human gut metagenome, 24 h, 2 µM; remark: listed apart in the source
[58] = as §1, with “WLS-010” for “WLS-170”, “ERS12561743” for “ERS12561762”; conditions: 2 µM
[59] = human gut metagenome, 24 h, 2 µM; remark: listed apart in the source
[60] = human gut metagenome, 24 h, 2 µM; remark: listed apart in the source
Further: call rule not given here.

Bacterial Biotransformation [1]: Compound metabolized
Bacterial Biotransformation [2]: Compound NOT metabolized
Bacterial Biotransformation [3]: Compound NOT metabolized
Bacterial Biotransformation [4]: Compound NOT metabolized
Bacterial Biotransformation [5]: Compound NOT metabolized
Bacterial Biotransformation [6]: Compound NOT metabolized
Bacterial Biotransformation [7]: Compound metabolized
Bacterial Biotransformation [8]: Compound metabolized
Bacterial Biotransformation [9]: Compound NOT metabolized
Bacterial Biotransformation [10]: Compound NOT metabolized
Bacterial Biotransformation [11]: Compound NOT metabolized
Bacterial Biotransformation [12]: Compound metabolized
Bacterial Biotransformation [13]: Compound NOT metabolized
Compound: CN(C)CCOC(c1ccc(Cl)cc1)c1ccccn1.O=C(O)/C=C\C(=O)O (stereo unspecified) [CARBINOXAMINE MALEATE]

Compound: CNCC[C@H](Oc1cccc2ccccc12)c1cccs1 [DULOXETINE]
Bacterial Biotransformation [1]: Compound metabolized
Bacterial Biotransformation [14]: Compound metabolized
Bacterial Biotransformation [15]: Compound NOT metabolized
Bacterial Biotransformation [2]: Compound NOT metabolized
Bacterial Biotransformation [16]: Compound NOT metabolized
Bacterial Biotransformation [17]: Compound NOT metabolized
Bacterial Biotransformation [18]: Compound NOT metabolized
Bacterial Biotransformation [3]: Compound NOT metabolized
Bacterial Biotransformation [19]: Compound NOT metabolized
Bacterial Biotransformation [4]: Compound NOT metabolized
Bacterial Biotransformation [20]: Compound metabolized
Bacterial Biotransformation [21]: Compound NOT metabolized
Bacterial Biotransformation [22]: Compound NOT metabolized
Bacterial Biotransformation [23]: Compound NOT metabolized
Bacterial Biotransformation [5]: Compound metabolized
Bacterial Biotransformation [24]: Compound NOT metabolized
Bacterial Biotransformation [25]: Compound NOT metabolized
Bacterial Biotransformation [26]: Compound metabolized
Bacterial Biotransformation [27]: Compound NOT metabolized
Bacterial Biotransformation [28]: Compound NOT metabolized
Bacterial Biotransformation [6]: Compound NOT metabolized
Bacterial Biotransformation [29]: Compound NOT metabolized
Bacterial Biotransformation [30]: Compound metabolized
Bacterial Biotransformation [31]: Compound NOT metabolized
Bacterial Biotransformation [32]: Compound NOT metabolized
Bacterial Biotransformation [33]: Compound NOT metabolized
Bacterial Biotransformation [34]: Compound metabolized
Bacterial Biotransformation [35]: Compound metabolized
Bacterial Biotransformation [36]: Compound NOT metabolized
Bacterial Biotransformation [7]: Compound metabolized
Bacterial Biotransformation [37]: Compound NOT metabolized
Bacterial Biotransformation [38]: Compound NOT metabolized
Bacterial Biotransformation [8]: Compound metabolized
Bacterial Biotransformation [39]: Compound NOT metabolized
Bacterial Biotransformation [40]: Compound NOT metabolized
Bacterial Biotransformation [9]: Compound NOT metabolized
Bacterial Biotransformation [41]: Compound NOT metabolized
Bacterial Biotransformation [42]: Compound NOT metabolized
Bacterial Biotransformation [10]: Compound metabolized
Bacterial Biotransformation [43]: Compound NOT metabolized
Bacterial Biotransformation [44]: Compound NOT metabolized
Bacterial Biotransformation [45]: Compound NOT metabolized
Bacterial Biotransformation [46]: Compound metabolized
Bacterial Biotransformation [11]: Compound NOT metabolized
Bacterial Biotransformation [47]: Compound NOT metabolized
Bacterial Biotransformation [48]: Compound NOT metabolized
Bacterial Biotransformation [49]: Compound NOT metabolized
Bacterial Biotransformation [50]: Compound NOT metabolized
Bacterial Biotransformation [51]: Compound metabolized
Bacterial Biotransformation [52]: Compound NOT metabolized
Bacterial Biotransformation [53]: Compound NOT metabolized
Bacterial Biotransformation [54]: Compound NOT metabolized
Bacterial Biotransformation [55]: Compound NOT metabolized
Bacterial Biotransformation [56]: Compound NOT metabolized
Bacterial Biotransformation [12]: Compound NOT metabolized
Bacterial Biotransformation [57]: Compound NOT metabolized
Bacterial Biotransformation [13]: Compound metabolized
Bacterial Biotransformation [58]: Compound NOT metabolized
Bacterial Biotransformation [59]: Compound metabolized
Bacterial Biotransformation [60]: Compound NOT metabolized

Bacterial Biotransformation [1]: Compound NOT metabolized
Bacterial Biotransformation [14]: Compound NOT metabolized
Bacterial Biotransformation [15]: Compound NOT metabolized
Bacterial Biotransformation [2]: Compound NOT metabolized
Bacterial Biotransformation [16]: Compound NOT metabolized
Bacterial Biotransformation [17]: Compound NOT metabolized
Bacterial Biotransformation [18]: Compound NOT metabolized
Bacterial Biotransformation [3]: Compound NOT metabolized
Bacterial Biotransformation [4]: Compound NOT metabolized
Bacterial Biotransformation [22]: Compound NOT metabolized
Bacterial Biotransformation [23]: Compound NOT metabolized
Bacterial Biotransformation [5]: Compound NOT metabolized
Bacterial Biotransformation [24]: Compound NOT metabolized
Bacterial Biotransformation [25]: Compound NOT metabolized
Bacterial Biotransformation [26]: Compound NOT metabolized
Bacterial Biotransformation [27]: Compound NOT metabolized
Bacterial Biotransformation [28]: Compound metabolized
Bacterial Biotransformation [6]: Compound NOT metabolized
Bacterial Biotransformation [29]: Compound NOT metabolized
Bacterial Biotransformation [30]: Compound NOT metabolized
Bacterial Biotransformation [31]: Compound NOT metabolized
Bacterial Biotransformation [33]: Compound NOT metabolized
Bacterial Biotransformation [34]: Compound NOT metabolized
Bacterial Biotransformation [35]: Compound NOT metabolized
Bacterial Biotransformation [36]: Compound NOT metabolized
Bacterial Biotransformation [7]: Compound NOT metabolized
Bacterial Biotransformation [38]: Compound NOT metabolized
Bacterial Biotransformation [8]: Compound NOT metabolized
Bacterial Biotransformation [39]: Compound NOT metabolized
Bacterial Biotransformation [40]: Compound NOT metabolized
Bacterial Biotransformation [9]: Compound NOT metabolized
Bacterial Biotransformation [41]: Compound NOT metabolized
Bacterial Biotransformation [42]: Compound NOT metabolized
Bacterial Biotransformation [10]: Compound NOT metabolized
Bacterial Biotransformation [43]: Compound NOT metabolized
Bacterial Biotransformation [45]: Compound NOT metabolized
Bacterial Biotransformation [46]: Compound NOT metabolized
Bacterial Biotransformation [11]: Compound NOT metabolized
Bacterial Biotransformation [47]: Compound NOT metabolized
Bacterial Biotransformation [49]: Compound NOT metabolized
Bacterial Biotransformation [50]: Compound NOT metabolized
Bacterial Biotransformation [51]: Compound NOT metabolized
Bacterial Biotransformation [52]: Compound NOT metabolized
Bacterial Biotransformation [53]: Compound metabolized
Bacterial Biotransformation [54]: Compound NOT metabolized
Bacterial Biotransformation [55]: Compound NOT metabolized
Bacterial Biotransformation [56]: Compound NOT metabolized
Bacterial Biotransformation [12]: Compound NOT metabolized
Bacterial Biotransformation [57]: Compound NOT metabolized
Bacterial Biotransformation [13]: Compound NOT metabolized
Bacterial Biotransformation [58]: Compound NOT metabolized
Bacterial Biotransformation [59]: Compound NOT metabolized
Bacterial Biotransformation [60]: Compound metabolized
Compound: CC#CCn1c(N2CCC[C@@H](N)C2)nc2c1c(=O)n(Cc1nc(C)c3ccccc3n1)c(=O)n2C [LINAGLIPTIN]

Source: ChEMBL document CHEMBL5724914, “Linking interpersonal differences in gut microbiota composition and drug biotransformation activity” (2024)
